Data reported in patent publication US20250154212A1, “METHOD OF DISRUPTING MEMORY AND LIPOPEPTIDE FOR USE IN SUCH METHOD” (The Research Foundation for The State University of New York, priority 2023, published 2025).
Where no end group is shown, it is not given here. The star is where a group is joined. Myristoyl = CCCCCCCCCCCCCC(=O)*

Target: T1, KIBRA-PKCι/λ interaction (Homo sapiens, UniProt P41743)
T1 construct: expressed in transfected cells; host or cells: HEK293T
T1 sequence (P41743 10-596): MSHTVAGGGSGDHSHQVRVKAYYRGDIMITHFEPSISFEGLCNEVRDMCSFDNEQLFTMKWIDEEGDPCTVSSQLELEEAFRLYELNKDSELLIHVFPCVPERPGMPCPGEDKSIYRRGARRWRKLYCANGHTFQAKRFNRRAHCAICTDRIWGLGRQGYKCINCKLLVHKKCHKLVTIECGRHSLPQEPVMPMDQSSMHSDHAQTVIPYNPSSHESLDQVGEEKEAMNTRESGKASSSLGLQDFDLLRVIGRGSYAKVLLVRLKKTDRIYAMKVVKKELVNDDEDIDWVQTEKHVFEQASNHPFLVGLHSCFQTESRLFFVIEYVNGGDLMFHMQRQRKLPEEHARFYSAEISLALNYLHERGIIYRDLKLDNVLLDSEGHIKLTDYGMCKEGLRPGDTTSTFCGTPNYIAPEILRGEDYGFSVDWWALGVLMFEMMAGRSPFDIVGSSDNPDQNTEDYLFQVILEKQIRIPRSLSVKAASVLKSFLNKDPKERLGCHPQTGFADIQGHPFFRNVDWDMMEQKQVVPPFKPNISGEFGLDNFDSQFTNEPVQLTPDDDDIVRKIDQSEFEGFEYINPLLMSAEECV
Assay: BiFC assay of KIBRA-PKCι/λ interaction in HEK293T cells
Assay type: cell-based
Conditions: 10 μM
Procedure: KIBRA-PKMζ BiFC was performed as previously described (28), using pVen1-FLAG-KIBRA and pVen2-HA-PKMζ, in which PKMζ was cloned between EcoR1 and BamH1 sites. The constructs pVen1 and pVen2 encode the N-terminus (amino acids 1-154) and C-terminus (amino acids 155-238) of the Venus protein, respectively, and the Venus fragments were on the N-terminal of the fusion proteins. pVen2-HA-PKMζ[PKCι/λ-P291Q;F297S] was generated by site-directed mutagenesis using forward-cctggagAagcAAatceggatcccccggtCcctgtccgte and reverse-gacggacaggGaccgggggatccggatTTgctTctccagg primers and the QuickChange II XL Site-Directed Mutagenesis Kit (Agilent Technologies), following manufacturer's instructions. Additional pVen2-HA-PKC isoforms and pVen2-HA-CaMKIIα in the pVen2-HA vector were generated by cloning the N-terminus of the coding sequence of each kinase (table S1) to obtain an in-frame fusion at the C-terminus of the pVen2-HA. Human versions of KIBRA and kinases were used, and all PCR amplified sequences and constructs were verified by DNA sequencing.
HEK293T cells were cultured in Dulbecco's Modified Eagle's Medium supplemented with 10% heat-inactivated fetal bovine serum, 100 U/ml penicillin, […] streptomycin, 2 mM glutamine, and 10 mM HEPES in a T75 tissue culture flask with canted neck and ventilated cap. Twenty-four hours prior to transfection, 1×10^5 HEK293T cells in 1 ml of media were plated on poly-D-lysine-treated coverslips in 24-well plates. One hour prior to transfection, 0.5 ml of the media was removed from each well, and ζ-stat or K-ZAP was added to the media that had been removed. The remaining media in each well was then discarded and substituted with the 0.5 ml pre-conditioned media containing ζ-stat or K-ZAP at designated concentrations. For transfection a total of 50 ng of DNA was delivered to each well using Lipofectamine 3000 (Invitrogen) and OptiMEM 1× reduced serum medium (Invitrogen) at a plasmid-to-plasmid ratio of 1:1. The amount of transfected DNA was optimized to produce relatively low concentrations of proteins during overexpression. […]

Compound	effect on KIBRA-PKCι/λ interaction (BiFC) (listed as C-stat)	effect on KIBRA-PKCι/λ interaction (BiFC) (listed as z-stat)	effect on KIBRA-PKCι/λ interaction (BiFC)
O=S(=O)(O)c1cc(O)c2c(S(=O)(=O)O)cc(S(=O)(=O)O)cc2c1 [ζ-stat, 1-naphthol-3,6,8-trisulphonic acid]	no measurable effect	has no effects	
myr-N-FVRNSLERRSVRMKRPS-C (Myristoyl-FVRNSLERRSVRMKRPS) [K-ZAP]			not measurably affected
